Data: publication PMC6010070, “Antinociceptive potency of a fluorinated cyclopeptide Dmt-c[D-Lys-Phe-p-CF3-Phe-Asp]NH2” (Journal of Enzyme Inhibition and Medicinal Chemistry, 2018)
Where two headings read alike, the source gives them in different places. Bridge positions count the residues as written; N and C are the ends. Square brackets hold non-standard residues; d marks the D form. Peptide text beside a SMILES is read from it. Dmt = Cc1cc(O)cc(C)c1C[C@H](N)C(=O)O

What was measured:
Kinetic solubility assay = type: physicochemical; conditions: PBS buffer, pH 7.4
Description: Kinetic solubility assay was performed using Multiscreen HTS Vacuum Manifold (Merck Millipore, Warsaw, Poland). Compounds for this test were prepared as 10 mM stock solutions in DMSO and diluted in a standard PBS buffer (pH = 7.4), to the final concentrations of 0.5 mM. The solutions were applied into a 96-well filter plate and incubated for 90 min at room temperature, while shaking at 40 g and then filtrated. The concentration of each compound was determined on the basis of the prepared calibration curve using the UV–VIS spectrophotometric method. According to the absorption spectra of the compounds the wavelength used for the measurements was 280 nm for both, C-36 and F-81.

[1] = Description: Parallel Artificial Membrane Permeability Assay (PAMPA) was performed using Multiscreen Filter Plate and Multiscreen Transport Receiver Plate (Merck Millipore, Warsaw, Poland). Tested, as well as reference compounds, were dissolved in 0.1 M PBS buffer containing 20% of ethanol, to the final concentration of 200 µM. A 300 µl aliquots of 0.1 M PBS solution (pH = 7.4) was dispensed into the wells of the […]. Then 1% n-dodecane solution of the brain polar lipid extract (Avanti Polar Lipids; Sigma Aldrich, Poznan, Poland) was prepared to investigate the blood–brain barrier (BBB) permeability. Aliquots of the obtained lipid solutions (5 µl) were dispensed on the membranes of wells of the donor plate and left to dry. […] A complete system, consisting of the receiver plate with inserted donor plate, was incubated at room temperature for 4 h, shaking at 40 g, to guarantee good solvent mixing.
The ability of the tested compounds to permeate the artificial membranes was classified according to the literature[33] as:
Artificial membrane permeability was assessed in the PAMPA assay and the permeability coefficient (Pe) was calculated from the following equation: Pe=C×-ln1-×Ca/Cr where C=Vd ×Va /(Vd+Va)×p×t
Membrane retention was analysed using mass balance between a compound left in the donor and acceptor compartments and calculated using the following equation: MB=Ca×Va+(Cd×Vd)/Cinitial×Vd where

Male CD-1 mice = assay: Hot-plate test after i.c.v. administration; type: in vivo; conditions: hot-plate test, mice, i.c.v.
Text: Male CD-1 mice (Harlan, Italy) weighing 25–30 g were used to determine the anti-nociceptive activity of the cyclopeptides in the hot-plate test after i.c.v. injection. Animal studies and research protocols were approved by the Service for Biotechnology and Animal Welfare of the Istituto Superiore di Sanità and authorized by the Italian Ministry of Health, according to Legislative Decree 26/14 (protocol number: 198/2013-B, 14 August 2013), which implemented the European Directive 2010/63/EEC on laboratory animal protection. Animal welfare was routinely checked by veterinarians from the Service for Biotechnology and Animal Welfare.
The hot-plate test was performed as described earlier. The intracerebroventricular (i.c.v.) injections were performed in a volume of 10 µl/animal, in the left brain ventricle of manually immobilized mice with a Hamilton microsyringe (50 µl) connected to a needle (diameter 0.5 mm). Peptides were also administrated in mice intravenously (i.v.) in a volume of 1 ml/kg. All compounds used for i.c.v. and i.v. administration were dissolved in saline. A transparent plastic cylinder (14 cm diameter, 31 cm height) was used to confine the mouse on the heated (55 ± 0.5 °C) surface of the plate. The animals were placed on the hot plate 5 min after the i.c.v. injection of saline (control) or peptides and the latencies to paw licking, rearing and jumping were measured at 5, 10, 20, 30, 45, 60, 90, and 120 min after administration of a peptide. A cut-off time of 240 s was used to avoid tissue injury. The percentage of the maximal possible effect (%MPE) was calculated as: %MPE = (t1 − t0)/(t2 − t0) × 100, where t0: control latency, t1: test latency, and t2: cut-off time. The median antinociceptive dose (ED50) was calculated according to the method of Litchfield and Wilcox[36].

[2] = parameters: method as in PMID 19995587; conditions: i.v. ref 35; cited from earlier work

With Cc1cc(O)cc(C)c1C[C@H](N)C(=O)N[C@@H]1CCCCNC(=O)C[C@@H](C(N)=O)NC(=O)[C@H](Cc2ccccc2)NC(=O)[C@H](Cc2ccccc2)NC1=O [Peptide C-36, Dmt-c[D-Lys-Phe-Phe-Asp]NH2] (H-[Dmt][dK]FFD-NH2; lactam 2-5; N-terminus assumed) the solubility at 90 min (Kinetic solubility assay; read-out: Solubility Mean) was no less than 500 µM, the solubility at 90 min (Kinetic solubility assay; read-out: Solubility Mean (mg/ml)) was no less than 0.36 mg/mL and the “BBB permeability Pe ± SD” value ([1]; PAMPA, brain polar lipid extract, 200 µM, 4 h, room temperature, pH 7.4) was no more than 0.58. The “Classification (BBB permeation)” value ([1]; PAMPA-BBB, classified by Pe) was “Low permeation (Pe < 2.0 – low permeation)”, the “Mean (%) Mass balance ± SD” value ([1]; PAMPA-BBB, membrane retention) was 97.87 ± 1.69% and the “ED50 (jumping response)” value (Male CD-1 mice) was 57.78 ng.

With Cn1c(=O)c2[nH]cnc2n(C)c1=O [Theophylline, theophylline, reference compound] the “Mean (%) Mass balance ± SD” value ([1]; PAMPA, pH 7.4) was 98.21 ± 3.65%.

In the case of Tyr-c[D-Lys-Phe-Phe-Asp]NH2, the “Ability to reach the brain after i.v. administration” value [2] is listed as “could reach the brain after i.v. administration”.
